# Test results taken from patent US20240024273A1, “TOPICAL ADMINISTRATION OF 2-(DIETHYLAMINO)ETHYL 2-(4-ISOBUTYLPHENYL)PROPRIONATE FOR TREATMENT OF DISEASES” (TECHFIELDS PHARMA CO., LTD., priority 2020, published 2024).
# Test system: Mild to Moderate Osteoarthritis of the Knee
# Test: Phase 2 study: use of rescue medication (paracetamol)
# Assay type: in vivo, human
# Settings: for Percentage of patients using rescue medication: only for knee pain
# Protocol: Subjects taking nonsteroidal anti-inflammatory drugs (NSAID) or other analgesics may enroll in the trial, but will discontinue any analgesic therapy for the duration of the study, starting at least 4 days (or 5 half lives, whichever is longer) prior to administration of the first dose of study medication (i.e., for an analgesic washout period before Day 1). Subjects will be allowed to take rescue medication (up to six 325 mg tablets [total of 1950 mg] of acetaminophen per day; provided by the Sponsor) for residual knee or other body pain starting 4 days (or 5 half lives, whichever is longer) prior to administration of the first dose of study medication except during the 24 hours prior to Baseline (Day 1), Week 2, Week 4, Week 8, Week 12/end of study (EOS), and Follow up assessments.
# Subjects will record the following information in a Daily Diary starting at Screening: the amount of knee pain in the target knee while walking during the preceding 24 hours (using a 100 mm visual analog scale [VAS]), the times and number of sprays for each administration of study medication, the times when the subject washes his/her knees and/or takes a shower, the number of tablets of rescue medication taken that day and the times taken, the reason for taking the rescue medication (e.g., knee pain, headache, low back pain), any other concomitant medications taken that day, and any AEs occurring that day.
# 3.9.3. Exploratory Efficacy Endpoints: • 1. Subject's global assessment of disease status of the target knee at 2, 4, 8, and 12 weeks of treatment; • 2. Investigator's global assessment of disease status of the target knee at 2, 4, 8, and 12 weeks of treatment; • 3. Subject's global assessment of response to therapy of the target knee at 2, 4, 8, and 12 weeks of treatment; • 4. Investigator's global assessment of response to therapy of the target knee at 2, 4, 8, and 12 weeks of treatment; • 5. Change from Baseline over time in VAS pain scores for the target knee from Daily Diary data; • 6. Amount of rescue medication (acetaminophen) consumed per day for target knee pain.
# Zeidler thought that paracetamol as rescue medication in nearly all OA trials may be a missing link to explain at least partially the large placebo response in OA trials. (Henning Zeidler, Paracetamol and the Placebo Effect in Osteoarthritis Trials: A Missing Link? Pain Research and Treatment, Volume 2011, 1-6.) From published data, the difference of the used amount of paracetamol is very small between the placebo and active drug cohorts. […] (T. J. Schnitzer, A. Kivitz, H. Frayssinet, and B. Duquesroix, “Efficacy and safety of naproxcinod in the treatment of patients with osteoarthritis of the knee: a 13-week prospective, randomized, multicenter study.” Osteoarthritis and Cartilage, vol. 18, no. 5, pp. 629-639, 2010.) In this trial, NSAIDs or any analgesic therapy was discontinued for the duration of the study, starting at least 14 days (or 5 half lives, whichever is longer) prior to administration of the first dose of study medication (ie, for an analgesic washout period before Day 1). Subjects were allowed to take rescue medication (up to six 325 mg tablets [total of 1950 mg] of acetaminophen per day; provided by the Sponsor) for residual knee or other body pain starting at least 4 days (or 5 half lives, whichever is longer) prior to administration of the first dose of study medication except during the 24 hours prior to Baseline (Day 1), Week 2, Week 4, Week 8, Week 12/end of study (EOS), and Follow-up assessments.
# [1] = for all pain and other conditions, 17.5 mg/knee (BID), Week 4
# [2] = for all pain and other conditions, 17.5 mg/knee (BID), Week 8
# [3] = for all pain and other conditions, 17.5 mg/knee (BID), Week 12
# [4] = for all pain and other conditions, 35 mg/knee (BID), Week 2
# [5] = for all pain and other conditions, 35 mg/knee (BID), Week 4
# [6] = for all pain and other conditions, 35 mg/knee (BID), Week 8
# [7] = for all pain and other conditions, 35 mg/knee (BID), Week 12
smiles,measurement,setting,value
CCN(CC)CCOC(=O)C(C)c1ccc(CC(C)C)cc1 (centres unmarked) [2-(diethylamino)ethyl 2-(4-isobutylphenyl)propionate],Daily amount of rescue medication (paracetamol),[1],115 mg/day/patient
same,"Rescue medication (paracetamol), % of decrease from baseline",[1],58.6%
same,Daily amount of rescue medication (paracetamol),[2],87 mg/day/patient
same,"Rescue medication (paracetamol), % of decrease from baseline",[2],68.7%
same,Daily amount of rescue medication (paracetamol),[3],69 mg/day/patient
same,"Rescue medication (paracetamol), % of decrease from baseline",[3],75.2%
same,Daily amount of rescue medication (paracetamol),"for all pain and other conditions, 35 mg/knee (BID), Day −2 to day −5 (baseline)",310 mg/day/patient
same,Daily amount of rescue medication (paracetamol),[4],171 mg/day/patient
same,"Rescue medication (paracetamol), % of decrease from baseline",[4],44.8%
same,Daily amount of rescue medication (paracetamol),[5],158 mg/day/patient
same,"Rescue medication (paracetamol), % of decrease from baseline",[5],49.0%
same,Daily amount of rescue medication (paracetamol),[6],111 mg/day/patient
same,"Rescue medication (paracetamol), % of decrease from baseline",[6],64.2%
same,Daily amount of rescue medication (paracetamol),[7],94 mg/day/patient
same,"Rescue medication (paracetamol), % of decrease from baseline",[7],69.7%
same,Daily amount of rescue medication (paracetamol),"for other conditions excluding knee pain, 8.75 mg/knee (BID), Day −2 to day −5 (baseline)",15 mg/day/patient
same,Daily amount of rescue medication (paracetamol),"for other conditions excluding knee pain, 8.75 mg/knee (BID), Week 2",47 mg/day/patient
same,Daily amount of rescue medication (paracetamol),"for other conditions excluding knee pain, 8.75 mg/knee (BID), Week 4",41 mg/day/patient
same,Daily amount of rescue medication (paracetamol),"for other conditions excluding knee pain, 8.75 mg/knee (BID), Week 8",44 mg/day/patient
same,Daily amount of rescue medication (paracetamol),"for other conditions excluding knee pain, 8.75 mg/knee (BID), Week 12",50 mg/day/patient
same,Daily amount of rescue medication (paracetamol),"for other conditions excluding knee pain, 17.5 mg/knee (BID), Day −2 to day −5 (baseline)",35 mg/day/patient
same,Daily amount of rescue medication (paracetamol),"for other conditions excluding knee pain, 17.5 mg/knee (BID), Week 2",50 mg/day/patient
same,Daily amount of rescue medication (paracetamol),"for other conditions excluding knee pain, 17.5 mg/knee (BID), Week 4",48 mg/day/patient
same,Daily amount of rescue medication (paracetamol),"for other conditions excluding knee pain, 17.5 mg/knee (BID), Week 8",33 mg/day/patient
same,Daily amount of rescue medication (paracetamol),"for other conditions excluding knee pain, 17.5 mg/knee (BID), Week 12",13 mg/day/patient
same,Daily amount of rescue medication (paracetamol),"for other conditions excluding knee pain, 35 mg/knee (BID), Day −2 to day −5 (baseline)",19 mg/day/patient
same,Daily amount of rescue medication (paracetamol),"for other conditions excluding knee pain, 35 mg/knee (BID), Week 2",73 mg/day/patient
same,Daily amount of rescue medication (paracetamol),"for other conditions excluding knee pain, 35 mg/knee (BID), Week 4",70 mg/day/patient
same,Daily amount of rescue medication (paracetamol),"for other conditions excluding knee pain, 35 mg/knee (BID), Week 8",57 mg/day/patient
same,Daily amount of rescue medication (paracetamol),"for other conditions excluding knee pain, 35 mg/knee (BID), Week 12",50 mg/day/patient
same,"maximum decrease of rescue medication for all pain, pre-treatment to week 12",in vivo,up to 75%
same,Percentage of patients using rescue medication,"8.75 mg/knee (BID), Day −2 to day −5 (baseline)",35.3%
same,Percentage of patients using rescue medication,"8.75 mg/knee (BID), Week 2",23.6%
same,Percentage of patients using rescue medication,"8.75 mg/knee (BID), Week 4",18.4%
same,Percentage of patients using rescue medication,"8.75 mg/knee (BID), Week 8",17.1%
same,Percentage of patients using rescue medication,"8.75 mg/knee (BID), Week 12",16.3%
same,Percentage of patients using rescue medication,"17.5 mg/knee (BID), Day −2 to day −5 (baseline)",24.0%
same,Percentage of patients using rescue medication,"17.5 mg/knee (BID), Week 2",11.3%
same,Percentage of patients using rescue medication,"17.5 mg/knee (BID), Week 4",8.4%
same,Percentage of patients using rescue medication,"17.5 mg/knee (BID), Week 8",7.2%
same,Percentage of patients using rescue medication,"17.5 mg/knee (BID), Week 12",6.5%
same,Percentage of patients using rescue medication,"35 mg/knee (BID), Day −2 to day −5 (baseline)",34.8%
same,Percentage of patients using rescue medication,"35 mg/knee (BID), Week 2",12.4%
same,Percentage of patients using rescue medication,"35 mg/knee (BID), Week 4",11.0%
same,Percentage of patients using rescue medication,"35 mg/knee (BID), Week 8",7.6%
same,Percentage of patients using rescue medication,"35 mg/knee (BID), Week 12",5.8%
same,"maximum decrease in the use of rescue medication, paracetamol",pre-treatment to week 12,84.9%
